In BigSolDB 2.1:

CCOc1ccc2ccccc2c1C(=O)N[C@@H]1C(=O)N2[C@@H]1SC(C)(C)[C@@H]2C(=O)[O-].[Na+]
solubility (mole fraction)
Details	278.15 K	283.15 K	288.15 K	293.15 K	298.15 K	303.15 K	308.15 K	313.15 K	318.15 K
in acetone	4.88e-05	7.1e-05	0.000106	0.000158	0.000202	0.000255	0.000309	0.000353	0.000401
in acetonitrile	2.25e-05	2.97e-05	4.09e-05	6.27e-05	7.46e-05	9.3e-05	0.000111	0.000128	0.000144
in ethanol	0.000161	0.000201	0.000246	0.00032	0.000372	0.000442	0.000509	0.000562	0.000615
in isopropanol	0.000155	0.000177	0.000201	0.000229	0.000261	0.000297	0.000337	0.000367	0.000395
in methanol	0.000605	0.000803	0.00101	0.00121	0.00149	0.00173	0.002	0.00226	0.00251
in n-butyl acetate	2.14e-05	3.21e-05	4.3e-05	5.85e-05	7.24e-05	8.6e-05	9.63e-05	0.000108	0.000117
